Data: US4645760A, “Activated aminoglycosides and aminoglycoside-aminocyclitols pharmaceutical compositions and method of use” (priority 1983, dated 1987)
Structures can show the parent of a compound that is named as a salt.

Legend:
[1] = test system: superoxide free radicals; assay: block of nitro-blue tetrazolium (NBT) reduction by superoxide; assay type: biochemical; details: photoreduced riboflavin or xanthine-xanthine oxidase; 560 nm; unactivated aminoglycosides
Excerpt: (§1) The auto-oxidation of epinephrine is blocked on a mole-to-mole basis by aminoglycosides and aminoglycoside-aminocyclitols. […] Other colorimetric or chemiluminescence assays for superoxide or hydroxyl radicals which use dyes or other reagents that can develop color selectively in the presence of these radicals can also form the basis of rapid photometric assays for parent aminoglycoside and aminoglycoside-aminocyclitol levels in biological or other aqueous solutions. The degree to which colored products are blocked by the aminoglycoside or the aminoglycoside-aminocyclitol compound would be directly proportional to the concentration of aminoglycosides and aminoglycoside-aminocyclitol compounds. Representative dyes and reactants include the following non-limitative list:
This is spectrophotometrically monitored at 560 nm, where the maximum absorbance of reduced NBT occurs. This procedure decreases in sensitivity at pH's higher than 7.0 and at very high (millimolar) drug concentrations. The reason for these limits is that superoxide reacts with aminoglycosides to generate a reducing compound which can interfere with the assay by directly reducing NBT.

[2] = test system: epinephrine autoxidation; assay: epinephrine autoxidation inhibition assay (oxygen radical reactivity); assay type: biochemical; details: for IC50: 25° C., 0.1M sodium carbonate, pH 10.2, A320, sulfate form, read-out: (A) Molarity for 50% inhibition of epinephrine autoxidation; for relative molar ratio for 50% inhibition: KM:SM:NM:GM; for B/A Molar ratio (epinephrine molarity / molarity for 50% inhibition): pH 10.2, 25° C.
Method: The oxygen radical reactivity of 4-aminoglycosides KM, streptomycin (SM), neomycin (NM), and gentamicin (GM) was tested using a previously described modification of the commonly used epinephrine autoxidation assay. […] Further studies are required to determine the identification of the reacting active oxygen species (e.g. singlet oxygen, hydroperoxy radicals, superoxide radicals, hydroxyl radicals, or others).
Reactions were performed at 25° C.; in 0.1M sodium carbonate, pH 10.2. Absorbance at 320 nm (A320) as measured with a Varian model 219 spectrophotometer. Antibiotics (Sigma) were used in the sulfate form; the working molecular weight reflects the anhydrous weight of the base. At least five aminoglycoside concentrations, each replicated four times, were used to estimate the 50% epinephrine autoxidation inhibition value. Epinephrine concentrations yielding between 0.23 and 0.27 ΔA320 per minute was the basis for calculating the percent of inhibition. The data were analyzed by linear regression; standard deviations are shown.
When the unactivated aminoglycoside-aminocyclitol compounds are added at pH=10.2 to a cuvette containing epinephrine and 0.1 molar carbonate buffer, the aminoglycosides block the autoxidation of epinephrine to adrenochrome on approximately a mole-to-mole basis. This blockade is monitored spectrophotometrically at 320 nm and is a linear function of drug concentration. Using 9×10^-4 molar epinephrine, the linear region extends from 10^-5 to 10^-3 molar aminoglycoside. The sensitivity of this assay can be extended by lowering the starting epinephrine concentration.

[3] = test system: B. subtilis; assay: antibiotic disc diffusion after riboflavin/methionine/UV activation; assay type: cell-based; details: for potency enhancement of mixture of activated compound and parent compound: 2.8×10^-5 M riboflavin, 0.01M methionine, half hour uv light; for potency after coincubation with irradiated riboflavin vs riboflavin-free parent solution: Example 5, methionine, 365 nm, half hour
Method: The parent compounds in the above table were subjected to two synthetic activation processes according to the present invention. As set forth below, the parent compound was incubated with 2.8×10^-5 M riboflavin and 0.01M methionine (a hydrogen donor) for a half hour in the presence of a uv light.
A solution of […] riboflavin, and a hydrogen donor such as 0.01M methionine, was irradiated with ultraviolet light at 365 nm for a half hour to produce oxygen-free radicals.

[4] = assay type: physicochemical
[5] = test system: E. Coli (ATC 25922); assay: disc inhibition zone, E. Coli (Table 1); assay type: cell-based; details: for zone of inhibition at 40 µg/disc: Escherichia coli, read-out: mm inhibition zone due to 40 μgm/disc, organism - E. Coli; for mm inhibition zone, E. Coli per log concentration antibiotic: slope, 2000 and 200 ppm
Method: (§2) ^1 9 ml antibiotic #5 agar (Difco), was poured warm into 15 ×
(§3) 100 mm Plastic petri dishes and seeded with test bacteria to a density of
(§4) 2 × 10^6 bacteria per ml (except B. subtilis which was seeded a
(§5) in item 2 below). Q uarter inch sterile filter discs were placed on the
(§6) agars and loaded with 20 microliters of test solutions at concentrations
(§7) of 2000 and 200 ppm. The antibiotic amounts therefore were 40
(§8) micrograms/disc or 4 micrograms/disc. Slopes were based on duplicate
(§9) tests of each substance at these two concentrations. All substances, each
(§10) at two concentrations were tested on each plate. Data were averaged.
(§11) ^3 Concentration of compound 4 MM 0500a1 was adjusted to represent th
(§12) total organic content. That is, 2000 ppm means 2000 parts organic materia
(§13) per million parts water.

[6] = test system: Pseudomonas aeruginosa (ATCC 22853); assay: disc inhibition zone, Pseudomonas aeruginosa (Table 1); assay type: cell-based; details: ATCC22853, read-out: mm inhibition zone due to 40 μgm/disc, organism - Pseudomonas aeruginosa
Method: as §2, §3, §4, §5, §6, §7, §8, §9, §10, §11, §12, §13

[7] = test system: S. aureus (ATCC 25923); assay: disc inhibition zone, S. aureus (Table 1); assay type: cell-based; details: for zone of inhibition at 40 µg/disc: Staphylococcus aureus, ATCC25923, read-out: mm inhibition zone due to 40 μgm/disc, Staphylococcus aureus (printed "coccus aureus"); for mm inhibition zone, S. aureus per log concentration antibiotic: slope, 2000 and 200 ppm
Method: as §2, §3, §4, §5, §6, §7, §8, §9, §10, §11, §12, §13

[8] = test system: Bacillus subtilis; assay: disc inhibition zone, Bacillus subtilis (Table 1); assay type: cell-based; details: for zone of inhibition at 40 µg/disc: Bacillus subtilis, 40 μgm/disc, 30 degrees, 18 hours, read-out: mm inhibition zone due to 40 μgm/disc, organism - Bacillus subtilis; for mm inhibition zone, B. subtilis per log concentration antibiotic: slope by regression
Method: ^2 9 ml antibiotic #5 media (Difco), seeded to a concentration of 0.2
microliters of B. subtilis spores/500 ml agar, was dispensed into 15
× 100 ml plastic petri dishes. One quarter inch Schleicher and
Schuell sterile filter discs were placed on the agar and loaded with 20
microliters of dilutions of test compound including dilutions of 2000 ppm
600 ppm, 200 ppm, 60 ppm, and 20 ppm. The plates were incubated overnight
at 30 degrees centigrade, the inhibition zones measured at 18 hours. All
values were based on 6 tests at a given concentration; each plate was
corrected to an average kill zone due to 20 microliters of neomycin B bas
at a concentration of 30 ppm. Slopes and kill zones for 40 microgramloade
discs were obtained usi ng regression analysis.
as §11, §12, §13

[9] = test system: Pseudomonas maltophilispp.; assay: disc inhibition zone, Pseudomonas maltophilia (Table 1); assay type: cell-based; details: read-out: mm inhibition zone due to 40 μgm/disc, organism - Pseudomonas maltophilispp.
Method: as §2, §3, §4, §5, §6, §7, §8, §9, §10, §11, §12, §13

[10] = test system: hydroxyl free radicals; assay: hydroxyl free radical spin-adduct formation by Electron Paramagnetic Resonance; assay type: biochemical; details: spin traps ntb or DMPO; xanthine/xanthine oxidase, pH 7.8; millimolar drug
Excerpt: as §1
Two spin traps were examined with the same conclusion, nitrosotertiary-butyl (ntb) and 5,5-dimethyl-1-pyrroline-1-oxide. The reaction mixture used to produce hydroxyl radical included 10^-4 M xanthine, 6×10^-8 M xanthine oxidase, 10^-3 EDTA, 10^-4 M spin trap (DMPO or ntb), 8.9×10^-5 M H2 O2, 0.1M potassium phosphate buffer; final pH--7.8. The free radical signals were directly monitored with and without the antibiotics by using the techniques of Electron Paramagnetic Resonance starting 2 minutes after reaction initiation. The scan range=100 Gauss; time constant=0.064 sec; modulation amplitude=1 Gauss; Microwave power=1 Mw; Microwave frequency=9.418 GHz; Field set=3350 Gauss; scan time=20 seconds; modulation frequency=100 KHz. AH =AN =14.9 G.

[11] = test system: bacteria (E. coli, Pseudomona aeruginosa); assay: bacterial killing by aminoglycosides (gentamicin, kanamycin) with coincubated enzyme; assay type: cell-based; details: coincubation, extracellular enzyme

Compound: NC[C@H]1O[C@H](O[C@H]2[C@H](O)[C@@H](O[C@H]3O[C@H](CO)[C@@H](O)[C@H](N)[C@H]3O)[C@H](N)C[C@@H]2N)[C@H](O)[C@@H](O)[C@@H]1O [KM, kanamycin]
- NBT reduction rate / blockade [1]: the rate of NBT reduction is slowed proportionally to the concentration of aminoglycoside
- IC50 [2]: 700 ± 100 µM
- relative molar ratio for 50% inhibition [2]: ~ 6
- epinephrine autoxidation blocked ([2]; fourfold molar excess of KM): 97%
- B/A Molar ratio (epinephrine molarity / molarity for 50% inhibition) [2]: 1.11
- potency enhancement of mixture of activated compound and parent compound [3]: 25%
- potency after coincubation with irradiated riboflavin vs riboflavin-free parent solution [3]: enhanced potency

Compound: NC[C@@H]1O[C@H](O[C@H]2[C@@H](O)[C@H](O[C@@H]3[C@@H](O)[C@H](N)C[C@H](N)[C@H]3O[C@H]3O[C@H](CN)[C@@H](O)[C@H](O)[C@H]3N)O[C@@H]2CO)[C@H](N)[C@@H](O)[C@@H]1O [NM, neomycin]
- IC50 [2]: 2100 ± 140 µM
- relative molar ratio for 50% inhibition [2]: ~2
- B/A Molar ratio (epinephrine molarity / molarity for 50% inhibition) [2]: 0.39
- potency enhancement of mixture of activated compound and parent compound [3]: 100%
- potency after coincubation with irradiated riboflavin vs riboflavin-free parent solution [3]: enhanced potency

Compound: NC[C@@H]1O[C@H](O[C@H]2[C@@H](O)[C@H](O[C@@H]3[C@@H](O)[C@H](N)C[C@H](N)[C@H]3O[C@H]3O[C@H](CN)[C@@H](O)[C@H](O)[C@H]3N)O[C@@H]2CO)[C@H](N)[C@@H](O)[C@@H]1O [NMb, Neomycin B base]
- solubility in DMSO [4]: DMSO- insoluble
- NBT reduction rate / blockade [1]: the rate of NBT reduction is slowed proportionally to the concentration of aminoglycoside
- zone of inhibition at 40 µg/disc [5]: 14.9 mm
- mm inhibition zone, E. Coli per log concentration antibiotic [5]: 5.5 mm per log concentration
- zone of inhibition at 40 µg/disc [6]: 10.7 mm
- zone of inhibition at 40 µg/disc [7]: 17.2 mm
- mm inhibition zone, S. aureus per log concentration antibiotic [7]: 6.1 mm per log concentration
- zone of inhibition at 40 µg/disc [8]: 23.3 mm
- mm inhibition zone, B. subtilis per log concentration antibiotic [8]: 5.6 mm per log concentration
- zone of inhibition at 40 µg/disc [9]: 8.3 mm

Compound: NC[C@H]1O[C@H](O[C@H]2[C@H](O)[C@@H](O)[C@H](N)C[C@@H]2N)[C@H](N)[C@@H](O)[C@@H]1O [Neomycin A base (neamine), Neomycin A base]
- zone of inhibition at 40 µg/disc [5]: 24.7 mm
- mm inhibition zone, E. Coli per log concentration antibiotic [5]: 7.8 mm per log concentration
- zone of inhibition at 40 µg/disc [6]: 0 mm
- zone of inhibition at 40 µg/disc [7]: 29.8 mm
- mm inhibition zone, S. aureus per log concentration antibiotic [7]: 9.4 mm per log concentration
- zone of inhibition at 40 µg/disc [8]: 33.8 mm
- mm inhibition zone, B. subtilis per log concentration antibiotic [8]: 7.0 mm per log concentration
- zone of inhibition at 40 µg/disc [9]: 0 mm

Compound: [H]/N=C(/N)N[C@H]1[C@H](O)[C@@H](O)[C@H](O[C@@H]2O[C@@H](C)[C@](O)(C=O)[C@H]2O[C@@H]2O[C@@H](CO)[C@H](O)[C@@H](O)[C@@H]2NC)[C@@H](N/C(N)=N\[H])[C@@H]1O [SM, streptomycin]
- IC50 [2]: 740 ± 100 µM
- relative molar ratio for 50% inhibition [2]: ~ 6
- B/A Molar ratio (epinephrine molarity / molarity for 50% inhibition) [2]: 1.08
- potency enhancement of mixture of activated compound and parent compound [3]: 18%
- potency after coincubation with irradiated riboflavin vs riboflavin-free parent solution [3]: enhanced potency

Compound: NC[C@H]1O[C@H](O[C@H]2[C@H](O)[C@@H](O[C@H]3O[C@H](CO)[C@@H](O)[C@H](N)[C@H]3O)[C@H](N)C[C@@H]2N)[C@H](O)[C@@H](O)[C@@H]1O [kanamycin sulfate]
- hydroxyl free radical spin-adduct formation [10]: prevented in a concentration-dependent manner

Compound: NC[C@@H]1O[C@H](O[C@H]2[C@@H](O)[C@H](O[C@@H]3[C@@H](O)[C@H](N)C[C@H](N)[C@H]3O[C@H]3O[C@H](CN)[C@@H](O)[C@H](O)[C@H]3N)O[C@@H]2CO)[C@H](N)[C@@H](O)[C@@H]1O [neoomycin B sulfate, neomycin B sulfate]
- hydroxyl free radical spin-adduct formation [10]: prevented in a concentration-dependent manner

Compound: [H]/N=C(/N)N[C@H]1[C@H](O)[C@@H](O)[C@H](O[C@@H]2O[C@@H](C)[C@](O)(C=O)[C@H]2O[C@@H]2O[C@@H](CO)[C@H](O)[C@@H](O)[C@@H]2NC)[C@@H](N/C(N)=N\[H])[C@@H]1O [streptomycin sulfate]
- hydroxyl free radical spin-adduct formation [10]: prevented in a concentration-dependent manner

Compound: Catalase
- effect on bacterial killing by aminoglycosides (gentamicin, kanamycin) [11]: Catalase blockade occurs alone

Compound: gentamicin [GM]
- NBT reduction rate / blockade [1]: the rate of NBT reduction is slowed proportionally to the concentration of aminoglycoside
- IC50 [2]: 4400 ± 460 µM
- relative molar ratio for 50% inhibition [2]: ~1
- B/A Molar ratio (epinephrine molarity / molarity for 50% inhibition) [2]: 0.19
- potency enhancement of mixture of activated compound and parent compound [3]: 167%
- potency after coincubation with irradiated riboflavin vs riboflavin-free parent solution [3]: enhanced potency
